# Measured values: the supplement of paper PMC7108870
# Tests used:
# HEK293sieSTAT3(Y640F) [1] = experiment: drug sensitivity score (DSS), viability CellTiter-Glo (DSS (dimensionless)); higher = more growth inhibition; extreme values may be limits of the assay; details: 72 h; STAT3 variant: Y640F (constitutively active)
# Summary of the method: (§1)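 HEK293 cells with a STAT3-dependent luciferase reporter, overexpressing either wild-type or mutant STAT3, were dispensed (20 μl at 100,000 cells/ml) into 384-well plates holding compounds acoustically pre-plated at 5 concentrations in 10-fold dilutions. The plates were kept for 72 hours at 37°C and 5% CO2, then CellTox Green fluorescence (485/520 nm) followed by CellTiter-Glo luminescence was read on a PHERAstar FS. Breeze was used to compute a drug sensitivity score from the dose-response curve area after normalisation to negative and positive control wells, and each value comes from one representative of two experiments.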
# HEK293sieSTAT3(wt) [2] = experiment: as above; details: 72 h; STAT3 variant: wild type
# Summary of the method: as §1
# HEK293sieSTAT3(Y640F) [3] = experiment: drug sensitivity score (DSS), cytotoxicity CellTox Green (DSS (dimensionless)); higher = more cytotoxic; extreme values may be limits of the assay; details: 72 h; STAT3 variant: Y640F (constitutively active)
# Summary of the method: as §1
# HEK293sieSTAT3(wt) [4] = experiment: as above; details: 72 h; STAT3 variant: wild type
# Summary of the method: as §1
Structure (SMILES),drug sensitivity score (HEK293sieSTAT3(Y640F) [1]),drug sensitivity score (HEK293sieSTAT3(wt) [2]),drug sensitivity score (HEK293sieSTAT3(Y640F) [3]),drug sensitivity score (HEK293sieSTAT3(wt) [4])
C=CCN(/C=C1/C(=O)O[C@H](COC)[C@@]2(C)C1=C(O)C(=O)C1=C2[C@H](OC(C)=O)C[C@]2(C)C(=O)CC[C@@H]12)CC=C [Sonolisib] (top concentration tested 10000 nM),1.67,0.33,2.34,0
CNC(=O)c1cc(Oc2ccc(NC(=O)Nc3ccc(Cl)c(C(F)(F)F)c3)cc2)ccn1 [Sorafenib] (top concentration tested 1000 nM),0,0.09,1.07,0
CN1CCN(c2nc(C3=C(c4c[nH]c5ccccc45)C(=O)NC3=O)c3ccccc3n2)CC1 [Sotrastaurin] (top concentration tested 10000 nM),3.63,5.78,3,0.69
C=CC(=O)Nc1cccc(Nc2nc(Nc3ccc(OCCOC)cc3)ncc2F)c1 [Spebrutinib] (top concentration tested 1000 nM),2.4,0,0,0
O=[N+]([O-])c1ccc2c(c1)S(=O)(=O)C=C2 [Stattic] (top concentration tested 50000 nM),17.2,17.2,16.9,18.9
CC(C)n1cnc2c(NCCc3ccc(O)cc3)nc(-c3csc4ccccc34)nc21 [StemRegenin 1] (top concentration tested 10000 nM),3.04,5.04,0.52,5.48
CN(N=O)C(=O)N[C@@H](C=O)[C@@H](O)[C@H](O)[C@H](O)CO [Streptozocin] (top concentration tested 10000 nM),0,1.93,0,0
CCN(CC)CCNC(=O)c1c(C)[nH]c(/C=C2\C(=O)Nc3ccc(F)cc32)c1C [Sunitinib] (top concentration tested 1000 nM),0.02,0,0,0
CC(C)(O)CC(=O)NCCn1ccc2ncnc(Nc3ccc(Oc4cccc(C(F)(F)F)c4)c(Cl)c3)c21 [TAK-285] (top concentration tested 2500 nM),0,0,0,0
N#Cc1c(Oc2ccc(F)c(NC(=O)Cc3cccc(C(F)(F)F)c3)c2)ccc2nc(NC(=O)C3CC3)sc12 [TAK-632] (top concentration tested 10000 nM),11.1,8.51,0,0
CCc1nc(-c2cccc(C)c2)c(-c2ccnc(NC(=O)c3ccccc3)c2)s1 [TAK-715] (top concentration tested 10000 nM),4.68,4.5,0,0
Cn1c(=O)c(F)c(Nc2ccc(I)cc2F)c2c(=O)n(C[C@@H](O)CO)cnc21 [TAK-733] (top concentration tested 1000 nM),1.47,0,0,0
CCS(=O)(=O)c1cccc(-c2cc(C(=O)NC3CCN(C)CC3)c(C)c3[nH]c4ncc(C)cc4c23)c1 [TAK-901] (top concentration tested 1000 nM),4.54,4.52,0,2.83
COc1cc(C(=O)NC2CCN(C)CC2)c(F)cc1Nc1ncc2c(n1)N(C1CCCC1)CC(F)(F)C(=O)N2C [TAK-960] (top concentration tested 2500 nM),0,0,0.89,0
Cc1cccc(-c2[nH]c(CNc3ccccc3F)nc2-c2ccc3ncnn3c2)n1 [TEW-7197] (top concentration tested 2500 nM),2.53,1.04,0,0.27
Nc1nc(N)c2nc(-c3cccc(O)c3)c(-c3cccc(O)c3)nc2n1 [TG100-115] (top concentration tested 10000 nM),0.15,0,0,0
Cc1cc(C(C)Nc2ccccc2)c2nc(N3CCOCC3)cc(=O)n2c1 (stereo unspecified) [TGX-221] (top concentration tested 10000 nM),0.57,0,0,0

Structure (SMILES),drug sensitivity score (HEK293sieSTAT3(Y640F) [1]),drug sensitivity score (HEK293sieSTAT3(wt) [2]),drug sensitivity score (HEK293sieSTAT3(Y640F) [3]),drug sensitivity score (HEK293sieSTAT3(wt) [4])
Nc1nc(NC2CC2)cc(-c2cccc(Cl)c2Cl)n1 [TH588] (top concentration tested 25000 nM),3.43,6.38,2.04,5.04
NC(=O)Nc1sc(-c2ccc(F)cc2)cc1C(N)=O [TPCA-1] (top concentration tested 25000 nM),5.84,7.61,0.96,5.56
Clc1ccccc1C(c1ccccc1)(c1ccccc1)n1cccn1 [TRAM-34] (top concentration tested 1000 nM),1.41,1.55,0,0
CC(=O)Nc1ccc(C(=O)Nc2ccccc2N)cc1 [Tacedinaline] (top concentration tested 1000 nM),4.27,2.27,0,0
C=CC[C@@H]1/C=C(\C)C[C@H](C)C[C@H](OC)[C@H]2O[C@@](O)(C(=O)C(=O)N3CCCC[C@H]3C(=O)O[C@H](/C(C)=C/[C@@H]3CC[C@@H](O)[C@H](OC)C3)[C@H](C)[C@@H](O)CC1=O)[C@H](C)C[C@@H]2OC [Tacrolimus] (top concentration tested 10000 nM),0.22,0.73,0,0
Cn1ncnc1[C@H]1c2n[nH]c(=O)c3cc(F)cc(c23)N[C@@H]1c1ccc(F)cc1 [Talazoparib] (top concentration tested 1000 nM),15.9,16,1.02,5.13
C[C@@H]1CN(Cc2ccc(F)cc2)[C@@H](C)CN1C(=O)c1cc2c(C(=O)C(=O)N(C)C)cn(C)c2cc1Cl [Talmapimod] (top concentration tested 10000 nM),3.93,1.23,0,0
COc1cc(Nc2ncc(F)c(Nc3ccc4c(n3)NC(=O)C(C)(C)O4)n2)cc(OC)c1OC [Tamatinib] (top concentration tested 10000 nM),2.55,3.72,5.91,8.52
CC/C(=C(\c1ccccc1)c1ccc(OCCN(C)C)cc1)c1ccccc1 [Tamoxifen] (top concentration tested 10000 nM),4.47,5.42,2.88,8.77
COc1cc2c(N3CCN(C(=O)Nc4ccc(OC(C)C)cc4)CC3)ncnc2cc1OCCCN1CCCCC1 [Tandutinib] (top concentration tested 1000 nM),0.33,1.99,0,0
C=CCNC1=C2C[C@@H](C)C[C@H](OC)[C@H](O)[C@@H](C)/C=C(\C)[C@H](OC(N)=O)[C@@H](OC)/C=C\C=C(/C)C(=O)NC(=CC1=O)C2=O [Tanespimycin] (top concentration tested 10000 nM),22.1,22.6,7.34,12.8
O[C@H]1CC[C@H](Nc2ncc3nc(Nc4c(F)cc(F)cc4F)n([C@H]4CCOC4)c3n2)CC1 [Tanzisertib] (top concentration tested 10000 nM),0,2,0,0
C[C@@H](C(=O)O)c1ccc(-c2ccccc2)c(F)c1 [Tarenflurbil] (top concentration tested 10000 nM),0.09,0.56,0,0
Cc1nc(-c2cn3c(n2)-c2ccc(-c4cnn(C(C)(C)C(N)=O)c4)cc2OCC3)n(C(C)C)n1 [Taselisib] (top concentration tested 1000 nM),4.03,5.32,0,0.54
COc1cccc2c1c(O)c(C(=O)N(C)c1ccc(C(F)(F)F)cc1)c(=O)n2C [Tasquinimod] (top concentration tested 10000 nM),0,5.07,0,0
CCN(c1cc(-c2ccc(CN3CCOCC3)cc2)cc(C(=O)NCc2c(C)cc(C)[nH]c2=O)c1C)C1CCOCC1 [Tazemetostat] (top concentration tested 10000 nM),0,1.85,0,0
CNC(=O)c1cc(COc2nnc(Nc3ccc(Cl)cc3)c3ccoc23)ccn1 [Telatinib] (top concentration tested 10000 nM),2.07,0,0,2.32
